Measured values as given in patent publication EP3079693B1 (priority 2013, dated 2015).

Assays:
[1] = target: influenza A RNA-dependent RNA polymerase (Influenza A virus, UniProt P03428+P03431+P03433); test: cell-based
[2] = system: constitutive gene expression; test: Counter screen: separate reporter system with cell death-activated reporter construct (constitutive gene expression); conditions: for observed toxicity or efficacy in either assay tested: antiviral and counterscreen assay; for toxicity in antiviral and counterscreen assays: at 50uM, both antiviral and counterscreen assay

Row | SMILES | IC50 [1] [µM] | observed toxicity or efficacy in either assay tested [2] | toxicity in antiviral and counterscreen assays [2]
1 | Cc1cc(NC(CO)C(O)c2ccccc2)n2nc(-c3cccc(F)c3)cc2n1 (stereo not drawn) [A0531, 2-(2-(3-fluorophenyl)-5-methylpyrazolo[1,5-a]pyrimidin-7-ylamino)-1-phenylpropane-1,3-diol] | > 50 | >50 µM (no observed toxicity or efficacy in either assay tested) | –
2 | COc1ccc(-c2cc3nc(C)cc(NCc4ccc5c(c4)OCO5)n3n2)cc1 [A0530, N-(benzo[d][1,3]dioxol-5-ylmethyl)-2-(4-methoxyphenyl)-5-methylpyrazolo[1,5-a]pyrimidin-7-amine] | > 50 | >50 µM (no observed toxicity or efficacy in either assay tested) | –
3 | Clc1ccc(-c2cc3nc4c(c(NCCc5ccccn5)n3n2)CCCC4)cc1 [A0442, 2-(4-chlorophenyl)-N-(2-(pyridin-2-yl)ethyl)-5,6,7,8-tetrahydropyrazolo[5,1-b]quinazolin-9-amine] | > 10 | – | >10uM (toxic to both antiviral and counterscreen at 50uM)
4 | COc1ccc(-c2cc3nc(C)cc(NCc4ccccc4)n3n2)cc1 [A0548, N-benzyl-2-(4-methoxyphenyl)-5-methylpyrazolo[1,5-a]pyrimidin-7-amine] | > 50 | >50 µM (no observed toxicity or efficacy in either assay tested) | –
5 | COc1ccc(-c2cc3c(=O)[nH]nc(SCc4ccccc4Cl)n3n2)cc1OC [A0553, 7-(2-chlorobenzylthio)-2-(3,4-dimethoxyphenyl)pyrazolo[1,5-d][1,2,4]triazin-4(5H)-one] | > 50 | >50 µM (no observed toxicity or efficacy in either assay tested) | –
6 | COc1ccc(-c2cc3nc4c(c(NCc5ccccc5F)n3n2)CCCC4)cc1 [A0529, N-(2-fluorobenzyl)-2-(4-methoxyphenyl)-5,6,7,8-tetrahydropyrazolo[5,1-b]quinazolin-9-amine] | > 50 | >50 µM (no observed toxicity or efficacy in either assay tested) | –
7 | COc1ccc(-c2cc3c(=O)[nH]nc(SCc4ccc5c(c4)OCO5)n3n2)cc1OC [A0551, 7-(benzo[d][1,3]dioxol-5-ylmethylthio)-2-(3,4-dimethoxyphenyl)pyrazolo[1,5-d][1,2,4]triazin-4(5H)-one] | > 50 | >50 µM (no observed toxicity or efficacy in either assay tested) | –
8 | COc1ccc(-c2cc3nc(C)c(C)c(N4CCCC4)n3n2)cc1OC [A0443, 2-(3,4-dimethoxyphenyl)-5,6-dimethyl-7-(pyrrolidin-1-yl)pyrazolo[1,5-a]pyrimidine] | > 50 | >50 µM (no observed toxicity or efficacy in either assay tested) | –
9 | Cc1ccc(-c2cc3nc4c(c(NCCc5ccccn5)n3n2)CCC4)cc1 [A0437, N-(2-(pyridin-2-yl)ethyl)-2-p-tolyl-6,7-dihydro-5H-cyclopenta[d]pyrazolo[1,5-a]pyrimidin-8-amine] | > 50 | >50 µM (no observed toxicity or efficacy in either assay tested) | –
10 | CCc1c(C)nc2cc(-c3ccc(OC)c(OC)c3)nn2c1NCCc1ccc(F)cc1 [A0440, 2-(3,4-dimethoxyphenyl)-6-ethyl-N-(4-fluorophenethyl)-5-methylpyrazolo[1,5-a]pyrimidin-7-amine] | > 50 | >50 µM (no observed toxicity or efficacy in either assay tested) | –
11 | COc1ccc(-c2cc3nccc(NCc4ccccc4OC)n3n2)cc1 [A0547, N-(2-methoxybenzyl)-2-(4-methoxyphenyl)pyrazolo[1,5-a]pyrimidin-7-amine] | > 50 | >50 µM (no observed toxicity or efficacy in either assay tested) | –
12 | COc1ccc(-c2cc3nc(-c4ccccc4)cc(NCc4ccccc4C)n3n2)cc1OC [A0528, 2-(3,4-dimethoxyphenyl)-N-(2-methylbenzyl)-5-phenylpyrazolo[1,5-a]pyrimidin-7-amine] | > 50 | >50 µM (no observed toxicity or efficacy in either assay tested) | –
13 | CCc1c(C)nc2cc(-c3cc(OC)cc(OC)c3)nn2c1NCCc1ccccc1 [A0527, 2-(3,5-dimethoxyphenyl)-6-ethyl-5-methyl-N-phenethylpyrazolo[1,5-a]pyrimidin-7-amine] | > 50 | >50 µM (no observed toxicity or efficacy in either assay tested) | –
14 | CCc1c(C)nc2cc(-c3ccc(OC)c(OC)c3)nn2c1NCc1cc(OC)ccc1OC [A0526, N-(2,5-dimethoxybenzyl)-2-(3,4-dimethoxyphenyl)-6-ethyl-5-methylpyrazolo[1,5-a]pyrimidin-7-amine] | > 50 | >50 µM (no observed toxicity or efficacy in either assay tested) | –
15 | COc1ccc(-c2c(C)nn3c(N4CCc5ccccc5C4)cc(C)nc23)cc1OC [A0550, 2-(3-(3,4-dimethoxyphenyl)-2,5-dimethylpyrazolo[1,5-a]pyrimidin-7-yl)-1,2,3,4-tetrahydroisoquinoline] | > 50 | >50 µM (no observed toxicity or efficacy in either assay tested) | –
16 | CCc1c(C)nc2cc(-c3cc(C)on3)nn2c1NCCc1ccccn1 [A0445, 6-ethyl-5-methyl-2-(5-methylisoxazol-3-yl)-N-(2-(pyridin-2-yl)ethyl)pyrazolo[1,5-a]pyrimidin-7-amine] | > 50 | >50 µM (no observed toxicity or efficacy in either assay tested) | –
17 | Cc1cc(NCC(O)c2cccc(O)c2)n2nc(-c3cccc(F)c3)cc2n1 (stereo not drawn) [A0532, 3-(2-(2-(3-fluorophenyl)-5-methylpyrazolo[1,5-a]pyrimidin-7-ylamino)-1-hydroxyethyl)phenol] | > 50 | >50 µM (no observed toxicity or efficacy in either assay tested) | –
18 | Fc1ccc(-c2cc3nc4c(c(NCCc5ccccn5)n3n2)CCCC4)cc1 [A0441, 2-(4-fluorophenyl)-N-(2-(pyridin-2-yl)ethyl)-5,6,7,8-tetrahydropyrazolo[5,1-b]quinazolin-9-amine] | > 10 | – | >10uM (toxic to both antiviral and counterscreen at 50uM)
19 | CCOc1ccc(-c2cc3c(SCc4cccc(C)c4)nccn3n2)cc1 [A0552, 2-(4-ethoxyphenyl)-4-(3-methylbenzylthio)pyrazolo[1,5-a]pyrazine] | > 50 | >50 µM (no observed toxicity or efficacy in either assay tested) | –
20 | CCc1c(C)nc2cc(-c3ccc(F)cc3)nn2c1NCCc1ccccn1 [A0436, 6-ethyl-2-(4-fluorophenyl)-5-methyl-N-(2-(pyridin-2-yl)ethyl)pyrazolo[1,5-a]pyrimidin-7-amine] | > 10 | – | >10uM (toxic to both antiviral and counterscreen at 50uM)
21 | CCc1c(C)nc2cc(-c3ccc(OC)c(OC)c3)nn2c1NCCc1ccc(OC)c(OC)c1 [A0438, N-(3,4-dimethoxyphenethyl)-2-(3,4-dimethoxyphenyl)-6-ethyl-5-methylpyrazolo[1,5-a]pyrimidin-7-amine] | > 10 | – | >10uM (toxic to both antiviral and counterscreen at 50uM)
